From ChEMBL document CHEMBL1201862, “PubChem BioAssay data set” (2004)
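Five concentrations, 48 hours, 96-well plates. GI50 marks 50% less growth.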 Active and inactive are the calls of the source. No stated cut-off is given here; in the data, active = GI50 up to about 1.1 µM and inactive = higher.

Tests used:
Assay in all cases: inhibition of tumour cell growth, NCI panel, 48 h
SK-MEL-28 = tested on: SK-MEL-28
SNB-19 = tested on: SNB-19
SF-295 = tested on: SF-295
UACC-62 = tested on: UACC-62
IGROV-1 = tested on: IGROV-1
SF-268 = tested on: SF-268
MDA-MB-435 = tested on: MDA-MB-435
KM12 = tested on: KM12
U-251 = tested on: U-251
HCT-116 = tested on: HCT-116
SF-539 = tested on: SF-539
SK-MEL-2 = tested on: SK-MEL-2
MCF7 = tested on: MCF7
TK-10 = tested on: TK-10
OVCAR-8 = tested on: OVCAR-8
LOX IMVI = tested on: LOX IMVI
A498 = tested on: A498
A549 = tested on: A549
Malme-3M = tested on: Malme-3M
SNB-75 = tested on: SNB-75
SN12C = tested on: SN12C
OVCAR-3 = tested on: OVCAR-3
EKVX = tested on: EKVX
DU-145 = tested on: DU-145
UACC-257 = tested on: UACC-257
SK-MEL-5 = tested on: SK-MEL-5
PC-3 = tested on: PC-3
RXF 393 = tested on: RXF 393
ACHN = tested on: ACHN
HT-29 = tested on: HT-29
T47D = tested on: T47D
HOP-92 = tested on: HOP-92
M14 = tested on: M14
OVCAR-4 = tested on: OVCAR-4
OVCAR-5 = tested on: OVCAR-5
786-0 = tested on: 786-0
HCC 2998 = tested on: HCC 2998
HOP-62 = tested on: HOP-62
NCI-H226 = tested on: NCI-H226
Hs-578T = tested on: Hs-578T
NCI-H522 = tested on: NCI-H522
COLO 205 = tested on: COLO 205
HCT-15 = tested on: HCT-15
MDA-N = tested on: MDA-N
NCI-H460 = tested on: NCI-H460
NCI/ADR-RES = tested on: NCI/ADR-RES
K562 = tested on: K562
RPMI-8226 = tested on: RPMI-8226
SW-620 = tested on: SW-620
CAKI-1 = tested on: CAKI-1
SK-OV-3 = tested on: SK-OV-3
NCI-H23 = tested on: NCI-H23

N#CCCC1(CCC#N)CCCCCCCCC(CCC#N)(CCC#N)C(O)C1O (configuration not stated)
GI50 (SK-MEL-28): > 100 µM (inactive)
GI50 (SNB-19): 66.7 µM (inactive)
GI50 (SF-295): > 100 µM (inactive)
GI50 (UACC-62): > 100 µM (inactive)
GI50 (IGROV-1): > 100 µM (inactive)
GI50 (SF-268): 37.8 µM (inactive)
GI50 (MDA-MB-435): > 100 µM (inactive)
GI50 (KM12): > 100 µM (inactive)
GI50 (U-251): 46.7 µM (inactive)
GI50 (HCT-116): > 100 µM (inactive)
GI50 (SF-539): 29.8 µM (inactive)
GI50 (SK-MEL-2): > 100 µM (inactive)
GI50 (MCF7): > 100 µM (inactive)
GI50 (TK-10): 74.8 µM (inactive)
GI50 (OVCAR-8): > 100 µM (inactive)
GI50 (LOX IMVI): > 100 µM (inactive)
GI50 (A498): 94.6 µM (inactive)
GI50 (A549): 73.6 µM (inactive)
GI50 (Malme-3M): > 100 µM (inactive)
GI50 (SNB-75): > 100 µM (inactive)
GI50 (SN12C): > 100 µM (inactive)
GI50 (OVCAR-3): > 100 µM (inactive)
GI50 (EKVX): > 100 µM (inactive)
GI50 (DU-145): > 100 µM (inactive)
GI50 (UACC-257): > 100 µM (inactive)
GI50 (SK-MEL-5): > 100 µM (inactive)
GI50 (PC-3): > 100 µM (inactive)
GI50 (RXF 393): 31.9 µM (inactive)
GI50 (ACHN): > 100 µM (inactive)
GI50 (HT-29): > 100 µM (inactive)
GI50 (T47D): > 100 µM (inactive)
GI50 (HOP-92): > 100 µM (inactive)
GI50 (M14): > 100 µM (inactive)
GI50 (OVCAR-4): > 100 µM (inactive)
GI50 (OVCAR-5): > 100 µM (inactive)
GI50 (786-0): > 100 µM (inactive)
GI50 (HCC 2998): > 100 µM (inactive)
GI50 (HOP-62): 61.7 µM (inactive)
GI50 (NCI-H226): > 100 µM (inactive)
GI50 (Hs-578T): 52 µM (inactive)
GI50 (NCI-H522): 30.3 µM (inactive)
GI50 (COLO 205): > 100 µM (inactive)
GI50 (HCT-15): > 100 µM
GI50 (MDA-N): > 100 µM (inactive)
GI50 (NCI-H460): > 100 µM (inactive)
GI50 (NCI/ADR-RES): > 100 µM (inactive)
GI50 (K562): > 100 µM (inactive)
GI50 (RPMI-8226): < 0.01 µM (active)
GI50 (SW-620): > 100 µM (inactive)
GI50 (CAKI-1): > 100 µM (inactive)
GI50 (SK-OV-3): > 100 µM (inactive)
GI50 (NCI-H23): > 100 µM (inactive)
